Results: ChEMBL document CHEMBL1134036, “Discovery and SAR of diarylsulfide cyclopropylamide LFA-1/ICAM-1 interaction antagonists” (Bioorg Med Chem Lett, 2001)
pIC50: −log10 of the molar value. One block for each compound: values may come before it.

Key:
[1] = target: T1, Intercellular adhesion molecule (ICAM-1), Integrin alpha-L/beta-2 (Homo sapiens, UniProt P05107+P20701); assay: Ability to block the adherence of leukocyte function-associated antigen-1 (LFA-1) expressing JY-8 cells and intercellular adhesion molecule (ICAM-1) by 50% in absence of serum; type: cell-based
T1 sequence (P20701 whole entry): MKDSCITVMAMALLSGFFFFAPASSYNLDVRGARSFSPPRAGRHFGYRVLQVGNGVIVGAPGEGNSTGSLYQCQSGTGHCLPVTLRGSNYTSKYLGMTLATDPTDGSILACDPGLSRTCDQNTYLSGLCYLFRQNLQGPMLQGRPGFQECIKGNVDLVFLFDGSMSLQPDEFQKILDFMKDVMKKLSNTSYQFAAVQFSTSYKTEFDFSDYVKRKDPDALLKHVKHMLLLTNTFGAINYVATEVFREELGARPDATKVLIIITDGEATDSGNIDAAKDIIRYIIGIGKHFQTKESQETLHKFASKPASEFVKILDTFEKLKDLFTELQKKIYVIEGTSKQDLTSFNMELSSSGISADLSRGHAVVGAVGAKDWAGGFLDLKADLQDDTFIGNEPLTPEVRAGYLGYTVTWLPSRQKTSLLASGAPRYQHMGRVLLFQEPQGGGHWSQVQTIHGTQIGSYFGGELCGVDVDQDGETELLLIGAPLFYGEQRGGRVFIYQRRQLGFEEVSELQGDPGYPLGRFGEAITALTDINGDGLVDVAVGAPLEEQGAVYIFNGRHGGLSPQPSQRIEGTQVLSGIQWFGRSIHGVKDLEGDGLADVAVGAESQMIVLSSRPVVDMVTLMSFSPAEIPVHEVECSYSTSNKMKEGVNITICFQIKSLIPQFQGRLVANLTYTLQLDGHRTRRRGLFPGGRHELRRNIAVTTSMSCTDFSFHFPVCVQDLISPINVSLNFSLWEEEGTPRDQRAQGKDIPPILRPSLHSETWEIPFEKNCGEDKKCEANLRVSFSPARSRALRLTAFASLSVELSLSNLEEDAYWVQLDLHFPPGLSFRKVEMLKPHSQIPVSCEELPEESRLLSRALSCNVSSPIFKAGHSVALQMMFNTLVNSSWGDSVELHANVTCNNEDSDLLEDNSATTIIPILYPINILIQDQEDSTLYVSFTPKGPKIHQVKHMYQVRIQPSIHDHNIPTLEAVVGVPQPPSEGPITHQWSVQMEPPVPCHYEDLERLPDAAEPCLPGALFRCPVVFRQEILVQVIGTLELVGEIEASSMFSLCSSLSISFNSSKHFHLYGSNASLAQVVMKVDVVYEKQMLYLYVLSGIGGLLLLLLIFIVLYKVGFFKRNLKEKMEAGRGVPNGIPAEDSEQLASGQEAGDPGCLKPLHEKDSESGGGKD
T1 sequence (P05362 whole entry, further chain): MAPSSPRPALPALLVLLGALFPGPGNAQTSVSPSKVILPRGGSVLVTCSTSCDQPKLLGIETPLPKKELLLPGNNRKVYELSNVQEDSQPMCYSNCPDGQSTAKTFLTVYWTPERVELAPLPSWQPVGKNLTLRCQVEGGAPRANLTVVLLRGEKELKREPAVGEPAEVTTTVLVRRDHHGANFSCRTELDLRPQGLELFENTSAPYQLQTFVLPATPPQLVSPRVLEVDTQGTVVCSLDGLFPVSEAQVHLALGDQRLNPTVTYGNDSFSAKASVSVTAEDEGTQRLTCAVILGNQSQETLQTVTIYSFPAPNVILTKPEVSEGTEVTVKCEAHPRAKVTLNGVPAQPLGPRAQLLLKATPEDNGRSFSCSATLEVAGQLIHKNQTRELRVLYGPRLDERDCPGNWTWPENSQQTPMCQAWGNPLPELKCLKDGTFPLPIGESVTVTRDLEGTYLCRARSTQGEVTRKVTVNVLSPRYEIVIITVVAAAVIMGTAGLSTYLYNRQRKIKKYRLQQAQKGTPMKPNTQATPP
T1 sequence (P05107 whole entry): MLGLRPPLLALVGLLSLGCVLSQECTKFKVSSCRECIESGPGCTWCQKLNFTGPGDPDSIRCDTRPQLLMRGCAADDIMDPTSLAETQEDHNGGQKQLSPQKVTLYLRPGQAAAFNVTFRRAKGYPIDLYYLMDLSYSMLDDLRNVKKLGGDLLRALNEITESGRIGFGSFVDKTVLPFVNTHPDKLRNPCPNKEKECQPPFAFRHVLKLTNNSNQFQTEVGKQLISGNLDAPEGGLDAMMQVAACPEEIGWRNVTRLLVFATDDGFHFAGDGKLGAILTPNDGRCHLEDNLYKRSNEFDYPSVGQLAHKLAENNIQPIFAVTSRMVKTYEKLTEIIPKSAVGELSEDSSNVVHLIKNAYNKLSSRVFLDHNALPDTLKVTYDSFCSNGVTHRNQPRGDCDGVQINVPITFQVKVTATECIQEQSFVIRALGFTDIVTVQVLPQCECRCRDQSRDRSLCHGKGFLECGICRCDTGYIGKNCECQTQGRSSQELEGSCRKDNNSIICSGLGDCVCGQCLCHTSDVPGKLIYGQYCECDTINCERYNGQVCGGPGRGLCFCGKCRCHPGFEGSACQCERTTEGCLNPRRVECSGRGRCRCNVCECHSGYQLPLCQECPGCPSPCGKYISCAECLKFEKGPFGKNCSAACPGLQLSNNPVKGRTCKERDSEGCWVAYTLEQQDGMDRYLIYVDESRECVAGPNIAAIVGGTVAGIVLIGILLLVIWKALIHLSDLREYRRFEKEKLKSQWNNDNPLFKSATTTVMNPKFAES

[2] = target: T2, Intercellular adhesion molecule (ICAM-1), Integrin alpha-L/beta-2 (Homo sapiens) (UniProt P20701+P05362+P05107); settings: JY-8
Description: 80% inhibition of JY-8 cell adhesion to ICAM-1 via leukocyte function-associated antigen-1 (LFA-1) withouot serum

[3] = target: T2, Intercellular adhesion molecule (ICAM-1), Integrin alpha-L/beta-2 (Homo sapiens); settings: JY-8; remark: listed apart in the source
Description: 70% inhibition of JY-8 cell adhesion to ICAM-1 via leukocyte function-associated antigen-1 (LFA-1) without serum

[4] = target: T1, Intercellular adhesion molecule (ICAM-1), Integrin alpha-L/beta-2; assay: 50% inhibition of JY-8 cell adhesion to ICAM-1 via leukocyte function-associated antigen-1 (LFA-1) with 50% FBS; type: cell-based
[5] = target: T2, Intercellular adhesion molecule (ICAM-1), Integrin alpha-L/beta-2 (Homo sapiens); settings: JY-8; remark: listed apart in the source
Description: 70% inhibition of JY-8 cell adhesion to ICAM-1 via leukocyte function-associated antigen-1 (LFA-1) with 50% FBS

[6] = target: T2, Intercellular adhesion molecule (ICAM-1), Integrin alpha-L/beta-2 (Homo sapiens); settings: 50% FBS
Description: 80% inhibition of JY-8 cell adhesion to ICAM-1 via leukocyte function-associated antigen-1 (LFA-1) with 50% FBS

[7] = Half life of compound at 5 mg/kg after po administration was determined in rat; type: ADME, organism-based; design: dose 5 mg/kg, route oral; settings: in vivo
[8] = Cmax of compound at 5 mg/kg after po administration was determined in rat; type: ADME, organism-based; design: dose 5 mg/kg, route oral; settings: in vivo
[9] = Oral bioavailability of compound at 5 mg/kg after po administration was determined in rat; type: ADME, organism-based; settings: in vivo

pIC50 [1]: 6.21
SMILES: O=C(O)C1CCN(c2ccccc2Sc2ccc(C3CC3C(=O)NCCCN3CCCC3=O)cc2C(F)(F)F)CC1 (stereo unspecified)

pIC50 [1]: 7.40
SMILES: O=C(NCCCN1CCCC1=O)C1CC1c1ccc(Sc2ccccc2N2CCCCC2)c(C(F)(F)F)c1 (stereo unspecified)

SMILES: O=C(O)C1CCCN(c2ccccc2Sc2ccc(C3CC3C(=O)NCCCN3CCCC3=O)cc2C(F)(F)F)C1 (stereo unspecified)
pIC50 [1]: 7.30

pIC50 [1]: 6.94
SMILES: CCOC(=O)C1CCN(c2ccccc2Sc2ccc(C3CC3C(=O)NCCCN3CCCC3=O)cc2C(F)(F)F)CC1 (stereo unspecified)

SMILES: CN1CCN(c2ccccc2Sc2ccc(C3CC3C(=O)NCCCN3CCCC3=O)cc2C(F)(F)F)CC1 (stereo unspecified)
pIC50 [1]: 6.70

pIC50 [1]: 7.00
SMILES: CCOC(=O)C1CCCN(c2ccccc2Sc2ccc(C3CC3C(=O)NCCCN3CCCC3=O)cc2C(F)(F)F)C1 (stereo unspecified)

SMILES: O=C(NCCCN1CCCC1=O)C1CC1c1ccc(Sc2ccccc2N2CCOCC2)c(C(F)(F)F)c1 (stereo unspecified)
pIC50 [1]: 7.82

SMILES: O=C(NCCCN1CCCC1=O)C1CC1c1ccc(Sc2ccccc2N2CCCC2)c(C(F)(F)F)c1 (stereo unspecified)
pIC50 [1]: 7.49

pIC50 [1]: 7.47
SMILES: CC(C)c1ccccc1Sc1ccc(C2CC2C(=O)NCCC(=O)O)c(Cl)c1Cl (single isomer, unassigned)

pIC50 [1]: 7.48
SMILES: CC(C)c1ccccc1Sc1ccc(C2CC2C(=O)N2CCCCC2C(=O)O)c(Cl)c1Cl (single isomer, unassigned)

pIC50 [1]: 7.68
SMILES: CC(C)c1ccccc1Sc1ccc(C2CC2C(=O)N2CCC(C(=O)O)CC2)c(Cl)c1Cl (single isomer, unassigned)

pIC50 [1]: 7.48
SMILES: CC(C)c1ccccc1Sc1ccc(C2CC2C(=O)NCC(=O)O)c(Cl)c1Cl (single isomer, unassigned)

SMILES: CC(C)c1ccccc1Sc1ccc(C2CC2C(=O)N2CCCC(C(=O)O)C2)c(Cl)c1Cl (stereo in doubt)
pIC50 [1]: 7.77

SMILES: CC(C)c1ccccc1Sc1ccc(C2CC2C(=O)NCCCC(=O)O)c(Cl)c1Cl (stereo in doubt)
pIC50 [1]: 7.59

SMILES: CC(C)c1ccccc1Sc1ccc(C2CC2C(=O)NCCCN2CCCC2=O)c(Cl)c1Cl (stereo in doubt)
pIC50 [1]: 8.22

SMILES: CC(C)c1ccccc1Sc1ccc(C2CC2C(=O)NCCCN2CCCC2=O)c(Cl)c1Cl (stereo in doubt; 12a) [listing 1 of 2 here]
pIC50 [1]: 8.15

SMILES: CC(C)c1ccccc1Sc1ccc(C2CC2C(=O)NCCCN2CCCC2=O)c(Cl)c1Cl (stereo in doubt; 12a) [listing 2 of 2 here]
IC80 [2]: 63 nM
IC70 [3]: 40 nM

pIC50 [1]: 7.92
SMILES: CC(C)c1ccccc1Sc1ccc(C2CC2C(=O)NCC(=O)O)c(Cl)c1Cl (stereo in doubt; 13a) [listing 1 of 2 here]

IC80 [2]: 95 nM
IC70 [3]: 50 nM
SMILES: CC(C)c1ccccc1Sc1ccc(C2CC2C(=O)NCC(=O)O)c(Cl)c1Cl (stereo in doubt; 13a) [listing 2 of 2 here]

pIC50 [1]: 8.10
SMILES: CC(C)c1ccccc1Sc1ccc(C2CC2C(=O)NCCC(=O)O)c(Cl)c1Cl (stereo in doubt; 14a) [listing 1 of 2 here]

IC80 [2]: 54 nM
IC70 [3]: 26 nM
SMILES: CC(C)c1ccccc1Sc1ccc(C2CC2C(=O)NCCC(=O)O)c(Cl)c1Cl (stereo in doubt; 14a) [listing 2 of 2 here]

SMILES: CC(C)c1ccccc1Sc1ccc(C2CC2C(=O)NCCCC(=O)O)c(Cl)c1Cl (stereo in doubt; 15a) [listing 1 of 2 here]
pIC50 [1]: 8.15

SMILES: CC(C)c1ccccc1Sc1ccc(C2CC2C(=O)NCCCC(=O)O)c(Cl)c1Cl (stereo in doubt; 15a) [listing 2 of 2 here]
IC80 [2]: 9 nM
IC70 [3]: 16 nM

pIC50 [4]: 5.83
pIC50 [1]: 7.89
SMILES: CC(C)c1ccccc1Sc1ccc(C2CC2C(=O)N2CCCCC2C(=O)O)c(Cl)c1Cl (stereo in doubt; 16a) [listing 1 of 2 here]

IC80 [2]: 110 nM
IC70 [3]: 55 nM
IC70 [5]: 3520 nM
IC80 [6]: 8820 nM
SMILES: CC(C)c1ccccc1Sc1ccc(C2CC2C(=O)N2CCCCC2C(=O)O)c(Cl)c1Cl (stereo in doubt; 16a) [listing 2 of 2 here]

SMILES: CC(C)c1ccccc1Sc1ccc(C2CC2C(=O)N2CCCC(C(=O)O)C2)c(Cl)c1Cl (stereo in doubt; 17a) [listing 1 of 2 here]
pIC50 [1]: 8.22

SMILES: CC(C)c1ccccc1Sc1ccc(C2CC2C(=O)N2CCCC(C(=O)O)C2)c(Cl)c1Cl (stereo in doubt; 17a) [listing 2 of 2 here]
IC80 [2]: 25 nM
IC70 [3]: 13 nM

pIC50 [1]: 8.05
SMILES: CC(C)c1ccccc1Sc1ccc(C2CC2C(=O)N2CCC(C(=O)O)CC2)c(Cl)c1Cl (stereo in doubt; 18a) [listing 1 of 2 here]

IC80 [2]: 54 nM
IC70 [3]: 24 nM
SMILES: CC(C)c1ccccc1Sc1ccc(C2CC2C(=O)N2CCC(C(=O)O)CC2)c(Cl)c1Cl (stereo in doubt; 18a) [listing 2 of 2 here]

SMILES: O=C(O)C1CCCN(c2ccccc2Sc2ccc(C3CC3C(=O)NCCCN3CCCC3=O)c(Cl)c2Cl)C1 (stereo in doubt; 27) [listing 1 of 2 here]
pIC50 [4]: 7.48
pIC50 [1]: 7.82

SMILES: O=C(O)C1CCCN(c2ccccc2Sc2ccc(C3CC3C(=O)NCCCN3CCCC3=O)c(Cl)c2Cl)C1 (stereo in doubt; 27) [listing 2 of 2 here]
IC80 [2]: 40 nM
IC70 [3]: 26 nM
IC70 [5]: 120 nM
IC80 [6]: 210 nM

SMILES: O=C(O)C1CCCN(c2ccccc2Sc2ccc(C3CC3C(=O)NCCCN3CCCC3=O)c(Cl)c2Cl)C1 (stereo in doubt; 28) [listing 1 of 2 here]
half-life [7]: 1.2 h
pIC50 [4]: 7.54
Cmax [8]: 350 ng/mL
bioavailability [9]: 27%
pIC50 [1]: 8.00

SMILES: O=C(O)C1CCCN(c2ccccc2Sc2ccc(C3CC3C(=O)NCCCN3CCCC3=O)c(Cl)c2Cl)C1 (stereo in doubt; 28) [listing 2 of 2 here]
IC80 [2]: 26 nM
IC70 [3]: 21 nM
IC70 [5]: 116 nM
IC80 [6]: 199 nM

SMILES: O=C(O)C1CCCN(c2ccccc2Sc2ccc(C3CC3C(=O)NCCCN3CCCC3=O)c(Cl)c2Cl)C1 (stereo in doubt; 29) [listing 1 of 2 here]
pIC50 [4]: 6.19
pIC50 [1]: 7.51

SMILES: O=C(O)C1CCCN(c2ccccc2Sc2ccc(C3CC3C(=O)NCCCN3CCCC3=O)c(Cl)c2Cl)C1 (stereo in doubt; 29) [listing 2 of 2 here]
IC80 [2]: 142 nM
IC70 [3]: 97 nM
IC70 [5]: 2100 nM
IC80 [6]: 3200 nM

SMILES: O=C(O)C1CCCN(c2ccccc2Sc2ccc(C3CC3C(=O)NCCCN3CCCC3=O)c(Cl)c2Cl)C1 (stereo in doubt; 30) [listing 1 of 2 here]
pIC50 [4]: 7.57
pIC50 [1]: 8.30

SMILES: O=C(O)C1CCCN(c2ccccc2Sc2ccc(C3CC3C(=O)NCCCN3CCCC3=O)c(Cl)c2Cl)C1 (stereo in doubt; 30) [listing 2 of 2 here]
IC80 [2]: 19 nM
IC70 [3]: 10 nM
IC70 [5]: 89 nM
IC80 [6]: 133 nM
